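Method: 48-hour compound exposure of cells in 96-well plates, five concentrations, linear interpolation of endpoints. The concentration for 50% growth inhibition is given as GI50. TGI denotes the concentration required for complete inhibition of growth.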
Columns and labels:
Experiment in all cases: DTP human tumour cell line panel, 48 h
A549 NSCLC = system: A549 NSCLC
BT-549 breast = system: BT-549 breast
CCRF-CEM leukemia = system: CCRF-CEM leukemia
DU-145 prostate = system: DU-145 prostate
EKVX NSCLC = system: EKVX NSCLC
KM12 colon = system: KM12 colon
MDA-MB-435 = system: MDA-MB-435
NCI/ADR-RES ovarian = system: NCI/ADR-RES ovarian
SF-268 CNS = system: SF-268 CNS
U251 CNS = system: U251 CNS

| Compound | GI50 (A549 NSCLC) [µM] | TGI (A549 NSCLC) [µM] | GI50 (BT-549 breast) [µM] | TGI (BT-549 breast) [µM] | GI50 (CCRF-CEM leukemia) [µM] | TGI (CCRF-CEM leukemia) [µM] | GI50 (DU-145 prostate) [µM] | TGI (DU-145 prostate) [µM] | GI50 (EKVX NSCLC) [µM] | TGI (EKVX NSCLC) [µM] | GI50 (KM12 colon) [µM] | TGI (KM12 colon) [µM] | GI50 (MDA-MB-435) [µM] | TGI (MDA-MB-435) [µM] | GI50 (NCI/ADR-RES ovarian) [µM] | TGI (NCI/ADR-RES ovarian) [µM] | GI50 (SF-268 CNS) [µM] | TGI (SF-268 CNS) [µM] | GI50 (U251 CNS) [µM] | TGI (U251 CNS) [µM] |
| --- | --- | --- | --- | --- | --- | --- | --- | --- | --- | --- | --- | --- | --- | --- | --- | --- | --- | --- | --- | --- |
| CCCCCc1nc2c(c3c1CCCC3)CCCC2 | 11.9 | 64 | 10.7 | 24.4 | 11.1 | 43.2 | 23.2 | > 100 | 4.21 | 26.9 | 6.94 | 33.7 | 14.4 | 38.7 | 3.91 | 22.6 | 14.8 | 44.4 | 11.9 | 29.1 |
| O=S(=O)(Cc1ccc(Cl)cc1Cl)c1ccc(Cl)cc1 | 0.693 | > 100 | 1.54 | > 75.4 | 0.505 | > 100 | 1.74 | 16.1 | 2.11 | > 100 | 0.372 | > 100 | 0.13 | 0.671 | 0.478 | 3.59 | 0.827 | > 100 | 0.496 | > 100 |
| COc1cc(C(=O)N2N=C(c3ccc(S(C)(=O)=O)cc3)CC2c2ccco2)cc(OC)c1OC (configuration not stated) | 6.92 | > 100 | 5.2 | > 71.7 | 2.5 | > 25.4 | 7.04 | > 78.1 | 21.3 | > 100 | 3.51 | > 100 | 1.27 | 7.27 | 6.04 | > 67.7 | 8.93 | > 100 | 5.09 | > 100 |
| CCC[CH2][Sn]([CH2]CCC)([O]C(=O)c1cc(F)ccc1F)[O][Sn]([CH2]CCC)([CH2]CCC)[O]C(=O)c1cc(F)ccc1F | 1.77 | 3.68 | 0.225 | 0.946 | 0.0113 | 2.7 | 0.646 | 1.92 | 0.69 | 2.11 | 0.999 | 2.32 | 0.446 | 1.67 | 0.522 | 1.88 | 0.216 | 0.798 | 0.175 | 0.584 |
| O=C1CC(c2cccc(O)c2)C2(C(=O)NC(=S)NC2=O)C(c2cccc(O)c2)C1 (configuration not stated) | > 100 | > 100 | > 100 | > 100 | > 100 | > 100 | > 100 | > 100 | > 100 | > 100 | > 100 | > 100 | > 100 | > 100 | > 100 | > 100 | > 100 | > 100 | > 100 | > 100 |
| O=c1cc(-c2ccccc2)oc2cc(O)c(O)c(O)c12 | 36.2 | > 100 | 13.6 | 87.5 | 2.39 | > 100 | 25.1 | > 100 | 18.9 | 63.3 | 18.2 | 62.5 | 10.2 | 39.8 | 16 | 44.6 | 4.55 | 29.6 | 11.1 | > 100 |
| CS(=O)(=O)OCC1OC(n2ccc(NC(=O)c3ccccc3)nc2=O)CC1OS(C)(=O)=O (configuration not stated) |  | > 100 |  | > 100 |  | > 100 |  | > 100 |  | > 100 |  | > 100 |  | > 100 |  | > 100 |  | > 100 |  | > 100 |
| N/C(=C\C(=O)n1nc(-c2ccccc2)cc1N)c1ccccc1 | 7.29 | 81.3 | 2.56 | 27.4 | 1.34 | 13.5 | 5.39 | 27.7 | 5.57 | 35.9 | 2.9 | 14.1 | 1.19 | 3.56 | 3.2 | > 100 | 5.14 | 31.7 | 4.04 | 19.2 |
| Cc1nc(-c2ccccc2)c(Cc2ccccc2O)c(=O)[nH]1 |  | > 100 |  | > 100 |  | > 100 |  | > 100 |  | > 100 |  | > 100 |  | > 100 |  | > 100 |  | > 100 |  | > 100 |
| O=C1C2C(C(=O)[N]1[Hg][c]1cccs1)C1(Cl)C(Cl)=C(Cl)C2(Cl)C1(Cl)Cl (configuration not stated) | 5.94 | 16.7 | 0.984 | 2.24 | 0.29 |  | 1.8 | 4.72 | 1.83 | 4.2 | 11.7 | 24.3 | 1.47 | 3.05 | 2.07 | 4.8 | 1.41 | 2.84 | 0.466 | 1.68 |
| COc1cc2c(cc1OCCCCCOc1cc3c(cc1OC)C(=O)N1CC(F)C[C@H]1C=N3)N=C[C@@H]1CC(F)CN1C2=O (some centres not stated) | 0.158 | 2.87 | 0.0939 | 0.721 | < 0.01 | 0.0713 | 0.097 | 2.67 | 1.1 | 7.78 | 0.369 | 1.15 | 0.169 | 0.761 | 0.553 | 9.87 | < 0.01 | 1.19 | 0.0135 | 0.235 |
| Oc1ccc(CN2CCC(N3CCOCC3)CC2)c2cccnc12 | > 100 | > 100 | 31.9 | > 100 | 23.8 | > 100 | 31.3 | > 100 | 36.6 | > 100 | 46.9 | > 100 | 36.2 | > 100 | 29.2 | > 100 | 16.3 | > 100 | 24.4 | > 100 |
| Clc1ccc(/C=C/c2cc(N3CCOCC3)c3cc(Cl)c(Cl)cc3n2)cc1 | > 100 | > 100 | 0.706 | > 40.2 | 0.302 | > 51 | > 100 | > 100 |  |  | > 51.4 | > 100 | > 100 | > 100 | > 100 | > 100 | > 100 | > 100 | > 100 | > 100 |
